Results published in patent US7863449B2, “Modulators of muscarinic receptors” (Vertex Pharmaceuticals Incorporated, priority 2004, dated 2011).
Structures can show the parent of a compound that is named as a salt.

Experiments:
M1 muscarinic receptor = biological target: T1, M1 muscarinic receptor (Homo sapiens, UniProt P11229); test: Functional mobilization of intracellular calcium (FLIPR), M1-CHO cells; type: cell-based; conditions: for Emax: 100% efficacy is the maximum response obtained using Carbachol as a control; for M1 Activity: M1-CHO cells, FLIPR calcium mobilization
T1 construct: expressed in transfected cells; host or cells: CHO (M1-CHO)
T1 sequence (P11229 1-460): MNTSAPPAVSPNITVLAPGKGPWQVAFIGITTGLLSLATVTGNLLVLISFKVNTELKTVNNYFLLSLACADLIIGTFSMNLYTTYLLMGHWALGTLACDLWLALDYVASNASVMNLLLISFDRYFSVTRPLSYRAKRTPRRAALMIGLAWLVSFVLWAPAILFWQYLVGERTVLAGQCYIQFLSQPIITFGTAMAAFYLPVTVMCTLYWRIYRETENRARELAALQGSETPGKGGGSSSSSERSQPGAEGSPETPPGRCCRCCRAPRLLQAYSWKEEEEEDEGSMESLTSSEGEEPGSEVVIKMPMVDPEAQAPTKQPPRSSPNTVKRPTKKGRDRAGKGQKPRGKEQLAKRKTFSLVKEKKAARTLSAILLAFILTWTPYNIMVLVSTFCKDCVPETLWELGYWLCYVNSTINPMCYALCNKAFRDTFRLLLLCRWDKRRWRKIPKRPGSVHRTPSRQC
Procedure, shortened: (§1)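 Calcium flux recorded 60 s (ex 488, em 540 nm) in dye-loaded M1- or M4-CHO cells in pH 7.4 buffer with 1 mM probenecid. Inhibition measured against carbachol EC80 after 15 min compound pre-incubation or co-addition; agonism measured by compound addition alone. Final DMSO 0.5%.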

M4 muscarinic receptor = biological target: T2, M4 muscarinic receptor (Homo sapiens, UniProt P08173); test: Functional mobilization of intracellular calcium (FLIPR), M4-CHO cells; type: cell-based; conditions: for Emax: 100% efficacy is the maximum response obtained using Carbachol as a control; for M4 Activity: M4-CHO cells, FLIPR calcium mobilization
T2 construct: expressed in transfected cells; host or cells: CHO (M4-CHO)
T2 sequence (P08173 1-479): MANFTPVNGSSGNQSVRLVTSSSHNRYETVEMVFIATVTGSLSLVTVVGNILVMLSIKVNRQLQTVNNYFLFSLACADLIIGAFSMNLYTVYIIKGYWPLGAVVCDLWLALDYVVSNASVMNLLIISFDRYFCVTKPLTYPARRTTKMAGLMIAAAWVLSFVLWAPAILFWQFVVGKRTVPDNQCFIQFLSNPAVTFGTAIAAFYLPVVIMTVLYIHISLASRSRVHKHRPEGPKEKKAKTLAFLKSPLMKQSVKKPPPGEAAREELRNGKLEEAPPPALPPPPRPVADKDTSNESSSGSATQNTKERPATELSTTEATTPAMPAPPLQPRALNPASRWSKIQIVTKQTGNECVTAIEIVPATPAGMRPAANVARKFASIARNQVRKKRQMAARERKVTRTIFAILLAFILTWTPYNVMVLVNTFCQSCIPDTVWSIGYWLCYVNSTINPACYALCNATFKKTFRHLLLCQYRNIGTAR
Procedure, shortened: as §1

| SMILES | Emax (M1 muscarinic receptor) [%] | M1 Activity (M1 muscarinic receptor) | Emax (M4 muscarinic receptor) [%] | M4 Activity (M4 muscarinic receptor) |
| --- | --- | --- | --- | --- |
| CCOC(=O)N1C2CCC1CC(N1CCC3(CC1)CN(C(=O)c1cccs1)Cc1ccccc13)C2 (stereo not shown) [compound 146] | 25 to 100 | +++ (activity was measured to be less than 1.0 μM) | 25 to 100 | +++ (activity was measured to be less than 1.0 μM) |
| CCOC(=O)N1CCC(CN2CCC3(CC2)CN(C(=O)c2ccccc2)Cc2ccccc23)CC1 [compound 147, Ethyl 4-((2-benzoyl-2,3-dihydro-1H-spiro[isoquinoline-4,4′-piperidine]-1′-yl)methyl)piperidine-1-carboxylate hydrochloride] | 25 to 100 | +++ (activity was measured to be less than 1.0 μM) | 25 to 100 | +++ (activity was measured to be less than 1.0 μM) |
| CCCCOC(=O)N1Cc2ccccc2C2(CCN(C3CC4CCC(C3)N4C(=O)OCC)CC2)C1 (stereo not shown) [compound 148] | 25 to 100 | +++ (activity was measured to be less than 1.0 μM) | 25 to 100 | +++ (activity was measured to be less than 1.0 μM) |
| CCOC(=O)N1C2CCC1CC(N1CCC3(CC1)CN(C(=O)c1cc(C)oc1C)Cc1ccccc13)C2 (stereo not shown) [compound 149] | < 25 | + (activity was measured to be greater than 5.0 μM) | 25 to 100 | +++ (activity was measured to be less than 1.0 μM) |
| COc1ccccc1CN1CCC2(CC1)CN(C(C)=O)Cc1ccccc12 [compound 150] | < 25 | + (activity was measured to be greater than 5.0 μM) | < 25 | + (activity was measured to be greater than 5.0 μM) |
| CCOC(=O)N1CCC(N2CCC3(CC2)CN(C(=O)c2ccccn2)Cc2ccccc23)CC1 [compound 151] | 25 to 100 | +++ (activity was measured to be less than 1.0 μM) | 25 to 100 | +++ (activity was measured to be less than 1.0 μM) |
| CC(=O)N1Cc2ccccc2C2(CCN(Cc3ccccc3Cl)CC2)C1 [compound 152] | < 25 | + (activity was measured to be greater than 5.0 μM) | 25 to 100 | ++ (activity was measured to be from 1.0 μM to 5.0 μM) |
| CC(=O)N1Cc2ccccc2C2(CCN(C3CCC(=O)CC3)CC2)C1 [compound 153] | 25 to 100 | + (activity was measured to be greater than 5.0 μM) | 25 to 100 | ++ (activity was measured to be from 1.0 μM to 5.0 μM) |
| CC(C)OC(=O)N1C2CCC1CC(N1CCC3(CC1)CN(S(C)(=O)=O)Cc1ccccc13)C2 (stereo not shown) [compound 154] | 25 to 100 | +++ (activity was measured to be less than 1.0 μM) | 25 to 100 | +++ (activity was measured to be less than 1.0 μM) |
| CCOC(=O)N1CCC(CN2CCC3(CC2)CN(S(=O)(=O)c2c(C)noc2C)Cc2ccccc23)CC1 [compound 155] | 25 to 100 | +++ (activity was measured to be less than 1.0 μM) | 25 to 100 | +++ (activity was measured to be less than 1.0 μM) |
| C#CCOC(=O)N1C2CCC1CC(N1CCC3(CC1)CN(C(C)=O)Cc1ccccc13)C2 (stereo not shown) [compound 156] | 25 to 100 | +++ (activity was measured to be less than 1.0 μM) | 25 to 100 | +++ (activity was measured to be less than 1.0 μM) |
| COCCOC(=O)N1Cc2ccccc2C2(CCN(C3CC4CCC(C3)N4C(=O)OC(C)C)CC2)C1 (stereo not shown) [compound 157] | 25 to 100 | +++ (activity was measured to be less than 1.0 μM) | 25 to 100 | +++ (activity was measured to be less than 1.0 μM) |
| COCCOC(=O)N1CCC(N2CCC3(CC2)CN(C(C)=O)Cc2ccccc23)CC1 [compound 158] | 25 to 100 | +++ (activity was measured to be less than 1.0 μM) | 25 to 100 | +++ (activity was measured to be less than 1.0 μM) |
| CCOC(=O)N1C2CCC1CC(N1CCC3(CC1)CN(c1cccc(F)c1)Cc1ccccc13)C2 (stereo not shown) [compound 159] | > 100 | +++ (activity was measured to be less than 1.0 μM) | 25 to 100 | +++ (activity was measured to be less than 1.0 μM) |
| CC(=O)N1Cc2ccccc2C2(CCN(CC3CCN(C(=O)OC(C)C)CC3)CC2)C1 [compound 161] | 25 to 100 | ++ (activity was measured to be from 1.0 μM to 5.0 μM) | < 25 | +++ (activity was measured to be less than 1.0 μM) |
| CCOC(=O)N1C2CCC1CC(N1CCC3(CC1)CN(C(=O)CC(C)(C)C)Cc1ccccc13)C2 (stereo not shown) [compound 162] | 25 to 100 | +++ (activity was measured to be less than 1.0 μM) | 25 to 100 | +++ (activity was measured to be less than 1.0 μM) |
| CCOC(=O)N1CCC(N2CCC3(CC2)CN(C(=O)NC2CCCCC2)Cc2ccccc23)CC1 [compound 163] | 25 to 100 | +++ (activity was measured to be less than 1.0 μM) | 25 to 100 | +++ (activity was measured to be less than 1.0 μM) |
| CCOC(=O)N1CCC(N2CCC3(CC2)CN(C(=O)OC2CCCC2)Cc2ccccc23)CC1 [compound 164] | 25 to 100 | +++ (activity was measured to be less than 1.0 μM) | 25 to 100 | +++ (activity was measured to be less than 1.0 μM) |
| CCOC(=O)N1CCC(N2CCC3(CC2)CN(C(=O)OC(C)C)Cc2ccccc23)CC1 [compound 166] | 25 to 100 | +++ (activity was measured to be less than 1.0 μM) | 25 to 100 | +++ (activity was measured to be less than 1.0 μM) |
| CCOC(=O)N1CCC(N2CCC3(CC2)CN(Cc2ccccc2)Cc2ccccc23)CC1 [compound 167] | 25 to 100 | ++ (activity was measured to be from 1.0 μM to 5.0 μM) | < 25 | +++ (activity was measured to be less than 1.0 μM) |
| CCNC(=O)N1Cc2ccccc2C2(CCN(C3CCN(C(=O)OCC)CC3)CC2)C1 [compound 168] | 25 to 100 | +++ (activity was measured to be less than 1.0 μM) | 25 to 100 | +++ (activity was measured to be less than 1.0 μM) |
| CC(=O)N1Cc2ccccc2C2(CCN(C3C4CC5CC(C4)CC3C5)CC2)C1 (stereo not shown) [compound 170] | 25 to 100 | +++ (activity was measured to be less than 1.0 μM) | 25 to 100 | +++ (activity was measured to be less than 1.0 μM) |
| CCOC(=O)N1CCC(CN2CCC3(CC2)CN(C(=O)Nc2c(C)noc2C)Cc2ccccc23)CC1 [compound 171] | 25 to 100 | +++ (activity was measured to be less than 1.0 μM) | 25 to 100 | +++ (activity was measured to be less than 1.0 μM) |
| CCOC(=O)N1CCC(N2CCC3(CC2)CN(C2CCCCCC2)Cc2ccccc23)CC1 [compound 172, Ethyl 4-(2-cycloheptyl-2,3-dihydro-1H-spiro[isoquinoline-4,4-piperidine]-1′-yl)piperidine-1-carboxylate] | 25 to 100 |  | 25 to 100 |  |
| CCOC(=O)N1CCC(N2CCC3(CC2)CN(S(=O)(=O)N(C)C)Cc2ccccc23)CC1 [compound 176] | 25 to 100 | +++ (activity was measured to be less than 1.0 μM) | 25 to 100 | +++ (activity was measured to be less than 1.0 μM) |
| CC(=O)N1Cc2ccccc2C2(CCN(C3CCN(C(=O)OC(C)(C)C)CC3)CC2)C1 [compound 177] | 25 to 100 | +++ (activity was measured to be less than 1.0 μM) | < 25 | + (activity was measured to be greater than 5.0 μM) |
| CCOC(=O)N1CCC(N2CCC3(CC2)CN(C(=O)C2(C)CCCCC2)Cc2ccccc23)CC1 [compound 178] | 25 to 100 | +++ (activity was measured to be less than 1.0 μM) | < 25 | + (activity was measured to be greater than 5.0 μM) |
